Read-outs that look alike come from different tables or passages of the source.

The subject of this experiment is murine contact hypersensitivity response. The experiment can be described thus: Mouse Ear Swelling Test (MEST), DNFB contact hypersensitivity. In kind it is in vivo, Swiss albino mice. The following applies: ear thickness 24 hours after challenge; for ED30 / ED40: Mus musculus, 24 h; for ED30: read-out: EC30 (ED30, dose for 30% inhibition of ear swelling); for ED40: read-out: EC40 (ED40, dose for 40% inhibition of ear swelling). The text has this: The in vitro cell adhesion assay was used to measure the effect of a test compound on adhesion of human T cell line (Jurkat J6) on surfaces coated with VCAM-1. The MEST assesses the ability of the experimental compounds to inhibit the delayed-type hypersensitivity response of sensitized mice against a potent allergen, 1,4-Dinitrofluoro benzene. These two assays are appropriate for screening compounds for two different activities. The cell adhesion assay determines the effect of compounds on the interaction of VLA4 molecules expressed on the surface of Jurkat cells with its counter-receptor, VCAM-1, immobilized on microtitre plate surface. Conversely, the MEST determines the potency of compounds to inhibit the murine contact hypersensitivity response induced by exposing mice to the potent allergen 1,4-Dinitrofluoro benzene. The Chisolm et al method was used in this respect (Chisolm et al, Eur. J. Immunology 1993;23:682).
We tested the efficacy of compounds synthesized in this invention to inhibit the act hypersensitivity in Swiss mice as follows:
20 to 25 gm female Swiss albino mice (animals procured from National Institute of Immunology, New Delhi, India and maintained in our Experimental Animal Facility) were anesthetized with anesthetic ether (Sisco Research Laboratories Ltd., India). A 2 cm^2 patch of dorsal skin was shaved using a hair clipper. The exposed skin was then dermabraded using No. 100 sandpaper gently. 25 μL freshly prepared 0.5% 1,4-Dinitrofluoro benzene in 4:1 (v/v) acetone:olive oil solution was then topically applied onto the dermabraded skin to encourage a mild inflammation reaction. Twenty-four hours after the initial sensitization, the mice were again sensitized with 25 μL freshly prepared 0.5% 1,4-Dinitrofluor benzene (DNFB) in 4:1 (v/v) acetone:olive oil solution on the same dermabraded site as before. The second sensitization was performed while restraining the non-anesthetized, conscious mouse.
2. Administration of Compound
On day 5, compounds were dissolved in an aqueous solvent (pyrogen-free water, alkaline water, or ethanol) and further diluted in pyrogen-free water to prepare appropriate doses. Solutions were administered by intravenous, subcutaneous or oral route.
3. Challenge and Measurement of Ear Thickness
Two hours following administration of the compounds, the animals were physically restrained and painted with 25 μL of freshly prepared 0.5% DNFB in 4:1 (v/v) acetone:olive oil solution on the right ear. The thickness of the right ear was measured using a Series 300 Odimeter (Dyer Gauge Inc, USA) at the time of challenge (0 hr), 4 hours and 24 hours after challenge while physically restraining the non-anesthetized mice. In a separate experiment, it was ascertained that 4:1 (v/v) acetone:olive oil vehicle has no effect on ear thickness.
4. Determination of Effective Concentration of the Compounds
Inhibition of the ear swelling was judged by comparison of treated groups with their negative control groups. Percent inhibition was calculated as: [formula]
STEST =Mean ear thickness in test group at 24 hours after challenge
STEST-zero =Mean ear thickness in test group at zero hours after challenge
SNC =Mean ear thickness in negative control group at 24 hours after challenge
SNC-zero =Mean ear thickness in negative control group at zero hours after challenge
The percentage inhibition of swelling obtained by the above calculation was plotted against log dose using the Graph Pad Prizm software and, from this plot, the log dose corresponding to 30% inhibition (log ED30) and 40% (log ED40) inhibition was determined.
Aqueous solutions of appropriate doses (1 μg/kg to 100 mg/kg) were administered by intravenous route 2 hrs before challenge and their effect on ear thickness was measured. Concentrations inhibiting ear swelling by 30% and 40% were determined and expressed as amount (ng, μg or mg) per Kg body weight.

[1] abbreviates: I.V., amount per Kg body weight.
Setting [2] is: S.C., amount per Kg body weight.

As to `CCCCCCCCCCCCO[C@@H]1[C@H]2OC(C)(C)O[C@H]2O[C@@H]1CNC(=O)Nc1ccc(CC(=O)O)cc1` [Compound 53, 1,2-O-isopropylidene-3-O-dodecyl-5-deoxy-5-N-{[4-(2-hydroxy-2-oxoethyl)phenyl]aminocarbonylamino}-α,D-xylofuranose], the ED30 runs as follows: under setting [1], 0.01 mg/kg; (Oral) 0.001 mg/kg; under setting [2], 0.0005 mg/kg. Moreover, the ED40 under setting [1] came to 0.07 mg/kg and the ED40 under setting [2] was 0.01 mg/kg.

Consider `CCCCCCCCCCCCO[C@H]1[C@H]2OC(C)(C)O[C@H]2O[C@@H]1CNC(=O)Nc1ccc(CC(=O)O)cc1` [Compound 76, 1,2-O-isopropylidene-3-O-dodecyl-5-deoxy-5-N-{[4-(2-hydroxy-2-oxoethyl)phenyl]aminocarbonylamino}-α,D-ribofuranose], for which, under “Oral”, the ED30 worked out at 0.00029 mg/kg and the ED40 stood at 0.0813 mg/kg.

`CC(C)C[C@H](NC(=O)[C@@]12O[C@H]3COC(C)(C)O[C@H]3[C@@H]1OC(C)(C)O2)C(=O)N[C@@H](CC(=O)O)C(=O)N[C@H](C(=O)N1CCC[C@H]1C(=O)O)C(C)C` [Compound 122, 2,3; 4,6-Di-O-isopropylidene-1-carbonyl-L-Leucyl-α,L-Aspartyl-L-Valyl-LProline-α,L-xylo-2-hexulofuranosonic acid]: under setting [1], the EC30 (ED30, dose for 30% inhibition of ear swelling) was determined as 8 mg/kg and the ED30 was found to be 12 mg/kg.

The record behind these values is US6329344A, “Derivatives of monosaccharides as cell adhesion inhibitors” (Ranbaxy Laboratories Limited, priority 1998, dated 2001).
